Key:
[1] = molecular target: T1, NLRP3 (Homo sapiens, UniProt Q96P20); assay: IC50 of NLRP3 inhibitors in reducing IL-1β secretion by THP-1 cells (PMA, LPS, nigericin; ELISA); assay type: cell-based; conditions: compound + nigericin 1 h
T1 construct: endogenous in cells; host or cells: THP-1 (human monocyte, PMA-differentiated, LPS-primed, nigericin-stimulated)
Experimental: Test Example 1 Experiment on Detection of IC50 of NLRP3 Inhibitors in Reducing the Level of IL-1β Secretion by THP-1 Cells
In this experiment, we use the human monocyte THP-1 to study the inhibitory activity of NLRP3 inhibitor on the secretion of IL-Iβ by cells. Human THP-1 cells are treated with crotonol-12-tetradecanoate-13-acetate (PMA) to differentiate into mature macrophage models. Then, according to the two stages of inflammasome formation in cells (assembly and activation), the cells are stimulated with lipopolysaccharide (LPS) and nigericin in turn, ultimately promoting the extracellular release of IL-1β by THP-1 cells. The first stage of inflammasome formation involves stimulating cells with LPS (lipopolysaccharide), an agonist of the Toll-like receptor TLR4, to activate the expression of the inflammasome-associated proteins NLRP3, caspase 1, and pro-IL-1β, a precursor of IL-1β. The second stage of inflammasome formation involves the addition of the potassium ion carrier nigericin, which causes a series of membrane potential changes in THP-1 cells, destroys the cell membrane structure, causes the efflux of cellular potassium ions, further stimulates the oligomerization of NLRP3 monomers to form NLRP3 oligomers, and begins to recruit ASC and pro-caspase-1 to assemble the NLRP3 inflammasome complex containing a large amount of pro-caspase-1. The pro-caspase-1 on the activated NLRP3 inflammasome is enzymatically self-activated to form a large amount of active caspase-1. The activated caspase-1 further enzymatically promotes the conversion of pro-IL-1β into mature IL-1β that can be secreted.
(1) Cell suspensions were collected. The cells were centrifuged at 1000 rpm for 4 min, the supernatant was discarded, the cells were resuspended with 1 mL of test medium, and then the cell culture medium was gently pipetted up and down with a pipette and its tip to break up the cell aggregates. After counting the cells, the THP-1 cells were resuspended with complete RPMI medium 1640 containing PMA and seeded into 96-well plates and cultured in a 37° C., 5% CO2 incubator for 72 h.
(2) The culture medium was taken out from each well with an automatic plate washer dispenser EL406 and each well was rinsed twice with PBS. To each well, 96 μL of RPMI 1640 medium containing LPS was added. The cells were cultured in a 37° C., 5% CO2 incubator for 4 h.
(3) To each well, 2 μL of the compound and 2 μL of nigericin sodium salt were added, and the final compound concentration selected was 5000 nM, 1000 nM, 200 nM, 40 nM, 8 nM, 1.6 nM, 0.32 nM, 0 nM, respectively. The cells were cultured in a 37° C., 5% CO2 incubator for 1 h.
(4) An appropriate amount of supernatant was taken out, diluted 100 times, and the content of IL-1β in the supernatant was detected using Human IL-1 beta Valukine ELISA kit.

[2] = tested on: MSU-induced acute rat gouty arthritis model; assay: MSU-induced rat acute gouty arthritis model; assay type: in vivo, SD rats; conditions: FIG. 1
Experimental: Test Example 3 MSU-Induced Rat Gouty Arthritis Model Evaluation Test
In this test, male SD rats were used to establish an acute gouty arthritis model by injecting 64 mg/mL sodium urate (MSU) crystal suspension into the right hind ankle joint cavity of the rats. The animals were randomly divided into normal control group, model control group, different dose groups of test compound, 7 rats in each group. The compound group was orally administered with the compound 1 h before and after modeling, and the normal control group and model control group were given an equal amount of vehicle. The foot circumference and foot diameter were measured before and 24 h after modeling.

[3] = tested on: IL-1β; assay: MSU-induced rat air pouch model, IL-1β in exudate; assay type: in vivo, SD rats; conditions: FIG. 2
Experimental: Test Example 4 MSU-Induced Rat Air Pouch Model Test
Male SD rats were used in this experiment. After an adaptation period, a dorsal air pouch model was established. On the first, fourth and seventh days of the molding, 20 ml of sterile air was injected subcutaneously into the back of the rat with an injection needle to maintain the inflation of the air pouch. On the eighth day, different doses of the compound or vehicle control were administered by oral gavage. 25 mg of sodium urate suspension was injected into the dorsal air pouch, and 5 h later, the air pouch exudate was collected. The exudate was centrifuged at 1500 rpm for 20 min, and the supernatant was collected and the IL-Iβ production was detected by ELISA (R&D, Ra1 IL-1β kit).

[4] = tested on: IL-1β; assay: Zymosan A-induced rat pericarditis model; assay type: in vivo, SD rats
Experimental: Test Example 5 Zymosan A-Induced Rat Pericarditis Model Test
In this experiment, SD rats were used and 150 μL of a mixture of 50 mg/mL ZymosanA and normal saline was injected into the pericardial cavity to induce a rat pericarditis model and conduct a pharmacodynamic observation experiment. The day of modeling was designated as Day 1. The animals were weighed and randomly divided into groups one day before modeling, namely, G1 normal group, G2 model group, G3 compound 062-10 mg/kg group, G4 compound 062-30 mg/kg group, G5 colchicine-100 μg/kg group, with 7+1* animals in each group (one extra animal was reserved for each group, considering that animals may die during model establishment). After the model was established, oral administration began, once a day, for 7 consecutive days. At the end of the experiment, the animals were euthanized, the muscles were cut open at the third and fourth rib regions to expose the heart, the pericardium was carefully lifted with forceps, and as much pericardial effusion (if any) as possible was extracted with a 1 ml syringe. The pericardial effusion was centrifuged at 5000 rpm at 4° C. for 5 min, and the supernatant was frozen at −80° C. for later detection of IL-1β levels. After the pericardial effusion was collected, the heart was perfused and removed (while ensuring the integrity of the pericardium), fixed with 10% formalin for subsequent pathological examination.

T1 sequence (Q96P20 whole entry): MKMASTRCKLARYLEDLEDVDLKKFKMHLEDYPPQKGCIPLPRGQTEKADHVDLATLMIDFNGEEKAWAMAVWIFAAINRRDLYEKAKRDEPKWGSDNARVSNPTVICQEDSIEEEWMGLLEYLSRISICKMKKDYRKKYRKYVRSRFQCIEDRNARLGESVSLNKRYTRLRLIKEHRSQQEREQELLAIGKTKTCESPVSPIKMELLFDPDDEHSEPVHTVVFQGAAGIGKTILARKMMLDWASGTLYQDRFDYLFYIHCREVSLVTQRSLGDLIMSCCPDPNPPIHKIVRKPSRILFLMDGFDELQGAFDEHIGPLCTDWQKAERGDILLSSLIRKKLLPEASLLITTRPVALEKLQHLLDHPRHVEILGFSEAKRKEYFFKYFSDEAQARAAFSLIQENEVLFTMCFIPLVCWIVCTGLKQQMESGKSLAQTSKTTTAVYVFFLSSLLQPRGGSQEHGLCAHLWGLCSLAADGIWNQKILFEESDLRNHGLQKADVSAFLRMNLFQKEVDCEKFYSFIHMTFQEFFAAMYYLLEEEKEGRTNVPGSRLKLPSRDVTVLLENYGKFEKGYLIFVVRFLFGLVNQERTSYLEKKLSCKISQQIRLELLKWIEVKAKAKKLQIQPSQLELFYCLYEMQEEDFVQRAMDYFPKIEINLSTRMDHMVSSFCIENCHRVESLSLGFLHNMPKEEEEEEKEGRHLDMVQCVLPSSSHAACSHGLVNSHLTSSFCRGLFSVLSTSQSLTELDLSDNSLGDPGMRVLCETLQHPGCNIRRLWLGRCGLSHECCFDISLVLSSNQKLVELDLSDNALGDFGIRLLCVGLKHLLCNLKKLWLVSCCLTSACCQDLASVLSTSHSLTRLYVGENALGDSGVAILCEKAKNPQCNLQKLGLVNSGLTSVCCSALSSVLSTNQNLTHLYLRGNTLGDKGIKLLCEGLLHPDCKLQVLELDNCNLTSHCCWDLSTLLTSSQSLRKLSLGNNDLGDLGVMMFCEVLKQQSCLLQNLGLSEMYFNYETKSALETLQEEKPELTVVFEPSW

`CC#Cc1ccc2c(-c3ccc(Cl)cc3O)nnc(NC[C@H](O)CO)c2c1` [Compound 062, (S)-3-((4-(4-chloro-2-hydroxyphenyl)-7-(prop-1-yn-1-yl)phthalazin-1-yl)amino) propan-1,2-diol] was tested, and the IC50 [1] was 9.7 nM, the “effect on ankle joint swelling compared with control compound” value [2] was “significantly better than that of the control compound” and the ankle joint swelling ([2]; oral, 1 h before and after modeling, 24 h after modeling) was “dose-dependent improvement in ankle joint swelling”. For the same compound, the “effect on IL-1β compared with colchicine and tofacitinib” value [3] was “better than that of colchicine and tofacitinib”, the “production of IL-1β in the air pouch” value ([3]; oral gavage, exudate 5 h after MSU) was “significantly inhibited the production of IL-1β in the air pouch” and the “degree of pericardial inflammation” value ([4]; 10 and 30 mg/kg oral once a day, 7 days, FIG. 3) was “improved the degree of pericardial inflammation”. The “production of IL-1β in the pericardium and pericardial effusion” value ([4]; 10 and 30 mg/kg oral once a day, 7 days, FIG. 4) was “significantly inhibited the production of IL-1β in the pericardium and pericardial effusion” and the “effect compared with colchicine” value ([4]; colchicine 100 μg/kg) was “comparable to that of colchicine”.
